Source: publication PMC4490784, “Compensatory induction of MYC expression by sustained CDK9 inhibition via a BRD4-dependent mechanism” (eLife, 2015)

Key:
Experiment in all cases: KINOMEscan binding assay
[1] = biological target: T1, ACVRL1 (Homo sapiens, UniProt P37023); conditions: read-out: % Retention on Solid Support
T1 construct: purchased DiscoveRx KINOMEscan
Summary of the method: (§1)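 Panel of >400 kinases screened by active-site competition binding, compound at 1 and 10 µM.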

[2] = biological target: T2, PIK3CA(H1047Y) (Homo sapiens, UniProt P42336, H1047Y); conditions: read-out: % Retention on Solid Support
T2 construct: purchased DiscoveRx KINOMEscan
Summary of the method: as §1

[3] = biological target: T3, PIP5K1A (Homo sapiens, UniProt Q99755); conditions: read-out: % Retention on Solid Support
T3 construct: purchased DiscoveRx KINOMEscan
Summary of the method: as §1

[4] = biological target: T4, RSK4(Kin.Dom.1-N-terminal) (Homo sapiens, UniProt Q9UK32)
T4 construct: RSK4(Kin.Dom.1-N-terminal); purchased DiscoveRx KINOMEscan
Summary of the method: as §1

[5] = biological target: T5, PRKG1 (Homo sapiens, UniProt Q13976); conditions: read-out: % Retention on Solid Support
T5 construct: purchased DiscoveRx KINOMEscan
Summary of the method: as §1

[6] = biological target: T6, BRSK1 (Homo sapiens, UniProt Q8TDC3); conditions: read-out: % Retention on Solid Support
T6 construct: purchased DiscoveRx KINOMEscan
Summary of the method: as §1

[7] = biological target: T7, PLK1 (Homo sapiens, UniProt P53350); conditions: read-out: % Retention on Solid Support
T7 construct: purchased DiscoveRx KINOMEscan
Summary of the method: as §1

[8] = biological target: T8, SRPK2 (Homo sapiens, UniProt P78362); conditions: read-out: % Retention on Solid Support
T8 construct: purchased DiscoveRx KINOMEscan
Summary of the method: as §1

[9] = biological target: T9, PKMYT1 (Homo sapiens, UniProt Q99640)
T9 construct: purchased DiscoveRx KINOMEscan
Summary of the method: as §1

[10] = biological target: T10, HIPK2 (Homo sapiens, UniProt Q9H2X6); conditions: read-out: % Retention on Solid Support
T10 construct: purchased DiscoveRx KINOMEscan
Summary of the method: as §1

[11] = biological target: T11, ERN1 (Homo sapiens, UniProt O75460); conditions: read-out: % Retention on Solid Support
T11 construct: purchased DiscoveRx KINOMEscan
Summary of the method: as §1

[12] = biological target: T12, CDK8 (Homo sapiens, UniProt P49336)
T12 construct: purchased DiscoveRx KINOMEscan
Summary of the method: as §1

[13] = biological target: T13, CDK4-cyclinD1 (Homo sapiens, UniProt P11802); conditions: 1 µM i-CDK9; read-out: % Retention on Solid Support
T13 construct: purchased DiscoveRx KINOMEscan
Summary of the method: as §1

[14] = biological target: T14, PYK2 (Homo sapiens, UniProt Q14289); conditions: read-out: % Retention on Solid Support
T14 construct: purchased DiscoveRx KINOMEscan
Summary of the method: as §1

[15] = biological target: T15, PKAC-beta (Homo sapiens, UniProt P22694); conditions: read-out: % Retention on Solid Support
T15 construct: purchased DiscoveRx KINOMEscan
Summary of the method: as §1

[16] = biological target: T16, PIK3CA(H1047L) (Homo sapiens, UniProt P42336, H1047L); conditions: read-out: % Retention on Solid Support
T16 construct: purchased DiscoveRx KINOMEscan
Summary of the method: as §1

[17] = biological target: T17, PIK3CA(E542K) (Homo sapiens, UniProt P42336, E542K); conditions: read-out: % Retention on Solid Support
T17 construct: purchased DiscoveRx KINOMEscan
Summary of the method: as §1

[18] = biological target: T18, FLT3 (Homo sapiens, UniProt P36888); conditions: read-out: % Retention on Solid Support
T18 construct: purchased DiscoveRx KINOMEscan
Summary of the method: as §1

[19] = biological target: T19, PFTAIRE2 (Homo sapiens, UniProt Q96Q40); conditions: read-out: % Retention on Solid Support
T19 construct: purchased DiscoveRx KINOMEscan
Summary of the method: as §1

[20] = biological target: T20, PLK3 (Homo sapiens, UniProt Q9H4B4); conditions: read-out: % Retention on Solid Support
T20 construct: purchased DiscoveRx KINOMEscan
Summary of the method: as §1

[21] = biological target: T21, PDPK1 (Homo sapiens, UniProt O15530); conditions: read-out: % Retention on Solid Support
T21 construct: purchased DiscoveRx KINOMEscan
T21 sequence (O15530 1-556): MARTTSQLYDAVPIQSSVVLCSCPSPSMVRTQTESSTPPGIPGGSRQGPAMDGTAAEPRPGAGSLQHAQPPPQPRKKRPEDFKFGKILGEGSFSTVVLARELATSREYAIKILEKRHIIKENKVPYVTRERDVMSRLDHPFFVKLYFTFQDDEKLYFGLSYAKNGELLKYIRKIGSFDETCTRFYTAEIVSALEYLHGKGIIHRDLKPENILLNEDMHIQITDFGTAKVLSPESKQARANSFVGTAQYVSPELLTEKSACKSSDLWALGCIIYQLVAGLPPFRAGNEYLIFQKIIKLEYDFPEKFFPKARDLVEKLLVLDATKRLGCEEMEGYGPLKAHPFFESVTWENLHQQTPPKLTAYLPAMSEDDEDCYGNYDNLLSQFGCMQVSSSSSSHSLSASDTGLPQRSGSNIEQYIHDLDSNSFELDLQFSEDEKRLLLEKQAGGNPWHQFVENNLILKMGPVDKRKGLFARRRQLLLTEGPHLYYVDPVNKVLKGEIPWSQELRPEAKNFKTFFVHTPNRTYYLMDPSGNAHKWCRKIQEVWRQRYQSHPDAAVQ
Summary of the method: as §1

[22] = biological target: T22, PRKCD (Homo sapiens, UniProt Q05655); conditions: read-out: % Retention on Solid Support
T22 construct: purchased DiscoveRx KINOMEscan
Summary of the method: as §1

[23] = biological target: T23, NEK11 (Homo sapiens, UniProt Q8NG66); conditions: 1 µM i-CDK9; read-out: % Retention on Solid Support
T23 construct: purchased DiscoveRx KINOMEscan
Summary of the method: as §1

T12 sequence (P49336 whole entry): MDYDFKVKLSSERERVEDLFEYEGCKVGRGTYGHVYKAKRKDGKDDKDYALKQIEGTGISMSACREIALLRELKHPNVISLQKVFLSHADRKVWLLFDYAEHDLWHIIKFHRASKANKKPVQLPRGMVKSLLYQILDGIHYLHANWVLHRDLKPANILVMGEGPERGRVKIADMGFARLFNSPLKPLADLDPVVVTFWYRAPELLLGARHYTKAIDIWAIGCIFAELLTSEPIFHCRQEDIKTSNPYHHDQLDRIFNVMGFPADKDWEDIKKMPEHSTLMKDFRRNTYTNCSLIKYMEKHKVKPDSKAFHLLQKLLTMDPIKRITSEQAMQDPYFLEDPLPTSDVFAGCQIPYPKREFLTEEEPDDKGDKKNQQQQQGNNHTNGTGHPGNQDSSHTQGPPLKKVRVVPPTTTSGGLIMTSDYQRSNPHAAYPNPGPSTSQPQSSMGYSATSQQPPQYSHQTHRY
T2 sequence (P42336 whole entry H1047Y): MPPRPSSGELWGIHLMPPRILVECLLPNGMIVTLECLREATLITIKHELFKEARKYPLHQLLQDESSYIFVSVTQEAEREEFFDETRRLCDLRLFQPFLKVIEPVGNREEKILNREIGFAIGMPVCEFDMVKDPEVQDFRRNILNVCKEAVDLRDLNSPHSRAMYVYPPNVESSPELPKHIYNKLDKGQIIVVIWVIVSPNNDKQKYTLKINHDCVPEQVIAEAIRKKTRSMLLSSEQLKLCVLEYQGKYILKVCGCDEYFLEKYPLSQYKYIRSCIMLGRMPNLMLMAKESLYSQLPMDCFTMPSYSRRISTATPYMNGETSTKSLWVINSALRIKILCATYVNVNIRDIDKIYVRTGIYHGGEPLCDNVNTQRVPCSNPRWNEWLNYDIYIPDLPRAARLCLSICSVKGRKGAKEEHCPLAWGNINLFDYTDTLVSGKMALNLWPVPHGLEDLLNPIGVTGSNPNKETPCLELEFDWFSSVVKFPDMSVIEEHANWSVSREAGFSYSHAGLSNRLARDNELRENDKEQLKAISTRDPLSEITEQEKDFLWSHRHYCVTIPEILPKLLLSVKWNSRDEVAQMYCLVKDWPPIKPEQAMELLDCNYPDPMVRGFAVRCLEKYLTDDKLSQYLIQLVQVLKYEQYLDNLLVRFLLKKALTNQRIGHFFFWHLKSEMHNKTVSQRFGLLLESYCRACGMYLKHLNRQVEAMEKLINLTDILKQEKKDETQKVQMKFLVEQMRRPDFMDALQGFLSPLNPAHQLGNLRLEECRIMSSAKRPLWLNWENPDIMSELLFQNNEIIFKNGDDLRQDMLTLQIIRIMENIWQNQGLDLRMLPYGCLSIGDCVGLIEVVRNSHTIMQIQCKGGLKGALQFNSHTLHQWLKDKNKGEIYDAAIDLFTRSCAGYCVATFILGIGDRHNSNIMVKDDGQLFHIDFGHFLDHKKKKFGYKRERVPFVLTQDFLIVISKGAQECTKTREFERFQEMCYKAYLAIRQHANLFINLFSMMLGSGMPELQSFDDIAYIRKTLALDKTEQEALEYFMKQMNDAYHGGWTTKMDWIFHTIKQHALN
T19 sequence (Q96Q40 whole entry): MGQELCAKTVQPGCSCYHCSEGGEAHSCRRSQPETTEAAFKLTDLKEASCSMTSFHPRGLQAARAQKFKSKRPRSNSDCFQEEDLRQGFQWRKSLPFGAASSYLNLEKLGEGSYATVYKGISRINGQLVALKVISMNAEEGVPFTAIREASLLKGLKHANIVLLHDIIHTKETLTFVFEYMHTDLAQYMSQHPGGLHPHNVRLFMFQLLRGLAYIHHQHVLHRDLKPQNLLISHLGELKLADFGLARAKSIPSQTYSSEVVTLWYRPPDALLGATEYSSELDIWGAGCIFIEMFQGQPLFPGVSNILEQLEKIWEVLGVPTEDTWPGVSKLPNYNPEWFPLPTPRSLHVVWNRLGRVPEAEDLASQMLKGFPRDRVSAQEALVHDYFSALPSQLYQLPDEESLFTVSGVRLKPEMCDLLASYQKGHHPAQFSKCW
T9 sequence (Q99640 whole entry): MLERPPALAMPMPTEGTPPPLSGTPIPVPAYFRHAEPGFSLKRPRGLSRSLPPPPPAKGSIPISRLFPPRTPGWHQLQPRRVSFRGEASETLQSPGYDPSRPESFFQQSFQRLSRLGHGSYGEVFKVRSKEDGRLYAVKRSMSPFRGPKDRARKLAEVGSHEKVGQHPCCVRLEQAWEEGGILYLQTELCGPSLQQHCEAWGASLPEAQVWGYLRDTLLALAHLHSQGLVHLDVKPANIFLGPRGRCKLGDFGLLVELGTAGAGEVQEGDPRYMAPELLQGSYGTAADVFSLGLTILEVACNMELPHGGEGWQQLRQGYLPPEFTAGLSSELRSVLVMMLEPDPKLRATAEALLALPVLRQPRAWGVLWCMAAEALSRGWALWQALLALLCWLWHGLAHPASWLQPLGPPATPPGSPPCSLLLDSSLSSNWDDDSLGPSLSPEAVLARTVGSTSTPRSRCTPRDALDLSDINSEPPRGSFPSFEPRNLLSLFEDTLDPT
T3 sequence (Q99755 whole entry): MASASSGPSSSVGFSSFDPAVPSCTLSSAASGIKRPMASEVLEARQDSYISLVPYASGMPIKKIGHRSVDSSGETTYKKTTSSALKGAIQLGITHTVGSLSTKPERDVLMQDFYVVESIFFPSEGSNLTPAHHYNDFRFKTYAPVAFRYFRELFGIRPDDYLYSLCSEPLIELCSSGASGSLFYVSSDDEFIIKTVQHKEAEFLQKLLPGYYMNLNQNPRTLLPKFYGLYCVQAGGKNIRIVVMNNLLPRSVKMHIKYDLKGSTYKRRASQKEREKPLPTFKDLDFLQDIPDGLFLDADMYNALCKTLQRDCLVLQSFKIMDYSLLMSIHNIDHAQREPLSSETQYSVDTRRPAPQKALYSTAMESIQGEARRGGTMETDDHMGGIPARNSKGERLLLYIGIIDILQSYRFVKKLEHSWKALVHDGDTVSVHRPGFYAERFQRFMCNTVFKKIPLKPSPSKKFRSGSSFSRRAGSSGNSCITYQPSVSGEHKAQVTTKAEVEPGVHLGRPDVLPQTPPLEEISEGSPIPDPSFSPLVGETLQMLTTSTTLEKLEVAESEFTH
T10 sequence (Q9H2X6 whole entry): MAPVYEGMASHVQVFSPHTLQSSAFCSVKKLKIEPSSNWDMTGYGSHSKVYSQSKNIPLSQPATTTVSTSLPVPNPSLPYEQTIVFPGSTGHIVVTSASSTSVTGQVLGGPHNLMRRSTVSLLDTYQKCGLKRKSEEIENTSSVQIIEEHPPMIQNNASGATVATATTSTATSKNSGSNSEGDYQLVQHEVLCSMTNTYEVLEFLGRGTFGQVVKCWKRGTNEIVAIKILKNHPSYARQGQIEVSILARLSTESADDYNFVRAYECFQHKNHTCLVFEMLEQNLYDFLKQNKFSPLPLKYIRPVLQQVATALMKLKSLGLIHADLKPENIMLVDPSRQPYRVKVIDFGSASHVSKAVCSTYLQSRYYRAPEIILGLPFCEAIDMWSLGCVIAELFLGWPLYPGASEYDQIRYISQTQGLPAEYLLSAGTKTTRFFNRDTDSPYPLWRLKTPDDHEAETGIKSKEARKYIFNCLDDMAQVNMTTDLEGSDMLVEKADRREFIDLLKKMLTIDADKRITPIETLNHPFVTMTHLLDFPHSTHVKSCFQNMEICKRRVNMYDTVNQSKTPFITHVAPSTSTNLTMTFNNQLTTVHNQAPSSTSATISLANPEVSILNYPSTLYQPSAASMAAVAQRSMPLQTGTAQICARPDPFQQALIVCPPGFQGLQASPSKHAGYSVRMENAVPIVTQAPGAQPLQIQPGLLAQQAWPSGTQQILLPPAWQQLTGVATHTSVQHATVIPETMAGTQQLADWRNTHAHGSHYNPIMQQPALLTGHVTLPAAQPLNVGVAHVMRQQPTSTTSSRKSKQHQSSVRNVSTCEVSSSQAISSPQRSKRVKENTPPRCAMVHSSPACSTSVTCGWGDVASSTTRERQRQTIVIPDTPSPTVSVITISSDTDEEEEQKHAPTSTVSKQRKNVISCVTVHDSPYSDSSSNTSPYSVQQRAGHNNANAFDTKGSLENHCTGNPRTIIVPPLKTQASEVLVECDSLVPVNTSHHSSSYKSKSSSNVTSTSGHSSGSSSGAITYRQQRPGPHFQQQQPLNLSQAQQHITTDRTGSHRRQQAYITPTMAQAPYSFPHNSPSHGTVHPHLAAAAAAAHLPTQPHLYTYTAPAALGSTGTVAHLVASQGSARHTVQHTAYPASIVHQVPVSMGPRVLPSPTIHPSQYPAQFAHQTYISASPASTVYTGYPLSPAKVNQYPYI
T4 sequence (Q9UK32 1-400 limits assumed): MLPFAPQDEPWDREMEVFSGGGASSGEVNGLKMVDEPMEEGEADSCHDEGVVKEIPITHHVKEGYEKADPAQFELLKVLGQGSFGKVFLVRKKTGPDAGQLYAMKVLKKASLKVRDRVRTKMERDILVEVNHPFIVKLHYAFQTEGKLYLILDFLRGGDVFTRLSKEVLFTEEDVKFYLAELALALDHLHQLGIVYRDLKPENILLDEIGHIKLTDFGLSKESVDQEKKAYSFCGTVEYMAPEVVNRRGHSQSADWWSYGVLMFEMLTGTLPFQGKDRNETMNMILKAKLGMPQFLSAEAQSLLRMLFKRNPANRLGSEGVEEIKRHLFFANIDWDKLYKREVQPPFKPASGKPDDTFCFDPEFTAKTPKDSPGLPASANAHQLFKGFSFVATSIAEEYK
T17 sequence (P42336 whole entry E542K): as the sequence (P42336 whole entry H1047Y) above, with E542K, Y1047H counted along it
T16 sequence (P42336 whole entry H1047L): as the sequence (P42336 whole entry H1047Y) above, with Y1047L counted along it

Compound `N[C@H]1CC[C@H](Nc2cc(-c3cccc(NCc4cccc(F)c4)n3)c(Cl)cn2)CC1` [i-CDK9, N2′-(trans-4-aminocyclohexyl)-5′-chloro-N6-(3-fluorobenzyl)-2,4′-bipyridine-2′,6-diamine] has a remaining binding at 1 µM ([1]; 1 µM i-CDK9) of 95%, a remaining binding at 10 µM ([1]; 10 µM i-CDK9) of 100% and a remaining binding at 1 µM ([2]; 1 µM i-CDK9) of 100%. The remaining binding at 10 µM ([2]; 10 µM i-CDK9) was 100%, the remaining binding at 1 µM ([3]; 1 µM i-CDK9) was 83% and the remaining binding at 10 µM ([3]; 10 µM i-CDK9) was 99%. The “% Retention on Solid Support” value ([4]; 1 µM i-CDK9) was 70%, the “% Retention on Solid Support” value ([4]; 10 µM i-CDK9) was 100% and the remaining binding at 1 µM ([5]; 1 µM i-CDK9) was 81%. The remaining binding at 10 µM ([5]; 10 µM i-CDK9) was 88%, the remaining binding at 1 µM ([6]; 1 µM i-CDK9) was 100% and the remaining binding at 10 µM ([6]; 10 µM i-CDK9) was 89%. It also gave a remaining binding at 1 µM ([7]; 1 µM i-CDK9) of 100%, a remaining binding at 10 µM ([7]; 10 µM i-CDK9) of 92% and a remaining binding at 1 µM ([8]; 1 µM i-CDK9) of 57%. For the same compound, the remaining binding at 10 µM ([8]; 10 µM i-CDK9) was 100%, the “% Retention on Solid Support” value ([9]; 1 µM i-CDK9) was 100% and the “% Retention on Solid Support” value ([9]; 10 µM i-CDK9) was 93%. For the same compound, the remaining binding at 1 µM ([10]; 1 µM i-CDK9) was 100%, the remaining binding at 10 µM ([10]; 10 µM i-CDK9) was 37% and the remaining binding at 1 µM ([11]; 1 µM i-CDK9) was 100%. The remaining binding at 10 µM ([11]; 10 µM i-CDK9) was 62%, the “% Retention on Solid Support” value ([12]; 1 µM i-CDK9) was 44% and the “% Retention on Solid Support” value ([12]; 10 µM i-CDK9) was 100%. The remaining binding at 1 µM [13] was 100%, the remaining binding at 1 µM ([14]; 1 µM i-CDK9) was 100% and the remaining binding at 10 µM ([14]; 10 µM i-CDK9) was 100%. It also gave a remaining binding at 1 µM ([15]; 1 µM i-CDK9) of 80%, a remaining binding at 10 µM ([15]; 10 µM i-CDK9) of 80% and a remaining binding at 1 µM ([16]; 1 µM i-CDK9) of 99%. The remaining binding at 10 µM ([16]; 10 µM i-CDK9) was 100%, the remaining binding at 1 µM ([17]; 1 µM i-CDK9) was 100% and the remaining binding at 10 µM ([17]; 10 µM i-CDK9) was 100%. It also gave a remaining binding at 1 µM ([18]; 1 µM i-CDK9) of 78%, a remaining binding at 10 µM ([18]; 10 µM i-CDK9) of 100% and a remaining binding at 1 µM ([19]; 1 µM i-CDK9) of 72%. The remaining binding at 10 µM ([19]; 10 µM i-CDK9) was 13%, the remaining binding at 1 µM ([20]; 1 µM i-CDK9) was 96% and the remaining binding at 10 µM ([20]; 10 µM i-CDK9) was 89%. The remaining binding at 1 µM ([21]; 1 µM i-CDK9) was 100%, the remaining binding at 10 µM ([21]; 10 µM i-CDK9) was 90% and the remaining binding at 1 µM ([22]; 1 µM i-CDK9) was 98%. The remaining binding at 10 µM ([22]; 10 µM i-CDK9) was 70% and the remaining binding at 1 µM [23] was 100%.
